Data as given in ChEMBL document CHEMBL1201862, “PubChem BioAssay data set” (2004).
Active and inactive are the calls of the source.

Assays:
[1] = HEK-293T cell viability reduction – luminescence, B-cell screen hits, cytotoxicity control for BCR NF-kB inhibitor project, dose response (AID 489021); assay type: functional, cell-based;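 also: HEK-293T cells carrying an NF-kB luciferase reporter; cells exposed to compound for about 14 hours before viability readout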
[2] = molecular target: T1, Sentrin-specific protease 1 (Homo sapiens, UniProt Q9P0U3); assay: Dose response confirmation of small molecule inhibitors of the catalytic domain of the SUMO protease, SENP1 in a FRET assay.; assay type: functional; conditions: read-out: IC50_Mean
T1 sequence (Q9P0U3 whole entry): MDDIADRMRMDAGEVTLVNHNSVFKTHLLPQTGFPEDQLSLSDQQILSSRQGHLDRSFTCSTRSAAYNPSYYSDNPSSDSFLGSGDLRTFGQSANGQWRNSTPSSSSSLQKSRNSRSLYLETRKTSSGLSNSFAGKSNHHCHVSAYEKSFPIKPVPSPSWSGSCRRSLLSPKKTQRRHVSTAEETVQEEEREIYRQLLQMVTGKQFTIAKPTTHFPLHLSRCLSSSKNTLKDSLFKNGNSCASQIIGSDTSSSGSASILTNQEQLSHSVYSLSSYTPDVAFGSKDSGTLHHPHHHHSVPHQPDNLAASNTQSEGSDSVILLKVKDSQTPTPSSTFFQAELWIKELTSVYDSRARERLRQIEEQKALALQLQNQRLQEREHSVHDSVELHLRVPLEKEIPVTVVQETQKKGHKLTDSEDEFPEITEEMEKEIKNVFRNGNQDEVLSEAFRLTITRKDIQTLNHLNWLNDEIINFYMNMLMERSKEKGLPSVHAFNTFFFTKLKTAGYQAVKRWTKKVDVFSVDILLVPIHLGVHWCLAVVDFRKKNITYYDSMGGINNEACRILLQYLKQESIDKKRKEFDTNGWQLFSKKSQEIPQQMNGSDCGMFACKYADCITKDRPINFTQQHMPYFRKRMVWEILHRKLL

[3] = molecular target: T1, Sentrin-specific protease 1; assay: SENP1 catalytic domain blockers, concentration series – biochemical, kinetic FRET, dose response (AID 651697); assay type: functional; conditions: read-out: IC50_Mean
[4] = molecular target: Acyl-homoserine lactone acylase PvdQ (Pseudomonas aeruginosa (strain LESB58), UniProt Q9I194); assay: PvdQ acylase enzyme activity blockers – biochemical, fluorescence, plate reader and imaging, cherry-picks, dose response (AID 493231)
Chain of Acyl-homoserine lactone acylase PvdQ (Q9I194 24-193 limits assumed): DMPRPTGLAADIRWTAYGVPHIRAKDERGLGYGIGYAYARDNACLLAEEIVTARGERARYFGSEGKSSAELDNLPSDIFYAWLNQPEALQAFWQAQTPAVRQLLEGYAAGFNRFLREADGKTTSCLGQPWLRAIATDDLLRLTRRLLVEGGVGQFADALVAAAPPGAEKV
Chain of Acyl-homoserine lactone acylase PvdQ (Q9I194 217-762 limits assumed): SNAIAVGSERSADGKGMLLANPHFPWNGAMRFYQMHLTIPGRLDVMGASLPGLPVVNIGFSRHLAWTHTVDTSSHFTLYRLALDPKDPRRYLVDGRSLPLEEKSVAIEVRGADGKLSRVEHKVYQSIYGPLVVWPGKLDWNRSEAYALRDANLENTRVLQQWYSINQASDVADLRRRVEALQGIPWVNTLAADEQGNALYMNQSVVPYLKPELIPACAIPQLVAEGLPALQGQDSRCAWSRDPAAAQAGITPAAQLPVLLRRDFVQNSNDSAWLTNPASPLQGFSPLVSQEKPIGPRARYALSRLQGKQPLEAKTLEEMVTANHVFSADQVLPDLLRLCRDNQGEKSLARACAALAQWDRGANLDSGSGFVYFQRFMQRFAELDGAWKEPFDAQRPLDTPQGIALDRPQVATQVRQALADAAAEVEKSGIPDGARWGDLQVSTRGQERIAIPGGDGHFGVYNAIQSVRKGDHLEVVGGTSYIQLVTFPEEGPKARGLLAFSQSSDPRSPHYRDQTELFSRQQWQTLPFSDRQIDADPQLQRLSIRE

[5] = protection from phage-mediated lysis, alamar blue read-out – E. coli UTI89, K1F phage, bacterial capsule biogenesis inhibitors (AID 488966); assay type: functional
[6] = molecular target: T2, Rac GTPase-activating protein 1 (Homo sapiens, UniProt Q9H0H5); assay: blockers of MgcRacGAP-driven Rac1 GTP hydrolysis – biochemical, ADP Hunter fluorescence, primary and confirmatory, confirmation (AID 624330); assay type: functional
T2 sequence (Q9H0H5 whole entry): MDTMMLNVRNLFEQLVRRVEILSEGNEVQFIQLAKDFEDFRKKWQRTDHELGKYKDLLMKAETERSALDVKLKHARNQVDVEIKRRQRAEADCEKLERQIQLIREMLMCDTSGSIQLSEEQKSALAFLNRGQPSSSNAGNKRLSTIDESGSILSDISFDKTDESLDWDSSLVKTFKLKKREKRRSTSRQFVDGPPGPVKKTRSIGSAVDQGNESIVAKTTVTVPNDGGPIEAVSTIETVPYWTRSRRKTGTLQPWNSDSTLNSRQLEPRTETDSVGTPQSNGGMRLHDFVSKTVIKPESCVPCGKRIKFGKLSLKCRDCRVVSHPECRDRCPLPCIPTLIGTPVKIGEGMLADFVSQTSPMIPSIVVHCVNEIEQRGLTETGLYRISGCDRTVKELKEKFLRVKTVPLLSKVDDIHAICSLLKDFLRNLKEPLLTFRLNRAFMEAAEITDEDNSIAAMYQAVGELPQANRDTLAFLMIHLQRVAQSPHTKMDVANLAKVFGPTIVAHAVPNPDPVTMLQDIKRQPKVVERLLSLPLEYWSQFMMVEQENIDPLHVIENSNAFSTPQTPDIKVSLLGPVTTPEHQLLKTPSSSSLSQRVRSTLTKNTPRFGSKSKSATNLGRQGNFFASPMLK

[7] = molecular target: T3, DNA repair protein RAD52 homolog (Homo sapiens, UniProt P43351); assay type: functional, biochemical
T3 sequence (P43351 whole entry): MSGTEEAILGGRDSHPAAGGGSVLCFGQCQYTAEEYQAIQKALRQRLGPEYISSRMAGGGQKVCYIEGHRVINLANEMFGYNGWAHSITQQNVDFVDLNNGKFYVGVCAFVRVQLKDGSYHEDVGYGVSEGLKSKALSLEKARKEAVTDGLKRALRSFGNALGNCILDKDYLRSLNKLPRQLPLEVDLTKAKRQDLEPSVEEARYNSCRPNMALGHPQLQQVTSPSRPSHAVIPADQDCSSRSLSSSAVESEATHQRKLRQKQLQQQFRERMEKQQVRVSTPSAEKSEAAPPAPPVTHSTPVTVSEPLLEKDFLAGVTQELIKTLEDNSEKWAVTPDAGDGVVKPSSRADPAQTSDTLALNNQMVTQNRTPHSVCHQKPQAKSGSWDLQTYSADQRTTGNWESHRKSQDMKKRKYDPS

[8] = viability loss in HeLa cells – cytotoxicity control for MgcRacGAP inhibitor project, dose response (AID 624300); assay type: functional
Cytochrome P450 2C9 = Cytochrome P450 2C9 (Homo sapiens, UniProt P11712); conditions: Potency
Chain of Cytochrome P450 2C9 (P11712 whole entry): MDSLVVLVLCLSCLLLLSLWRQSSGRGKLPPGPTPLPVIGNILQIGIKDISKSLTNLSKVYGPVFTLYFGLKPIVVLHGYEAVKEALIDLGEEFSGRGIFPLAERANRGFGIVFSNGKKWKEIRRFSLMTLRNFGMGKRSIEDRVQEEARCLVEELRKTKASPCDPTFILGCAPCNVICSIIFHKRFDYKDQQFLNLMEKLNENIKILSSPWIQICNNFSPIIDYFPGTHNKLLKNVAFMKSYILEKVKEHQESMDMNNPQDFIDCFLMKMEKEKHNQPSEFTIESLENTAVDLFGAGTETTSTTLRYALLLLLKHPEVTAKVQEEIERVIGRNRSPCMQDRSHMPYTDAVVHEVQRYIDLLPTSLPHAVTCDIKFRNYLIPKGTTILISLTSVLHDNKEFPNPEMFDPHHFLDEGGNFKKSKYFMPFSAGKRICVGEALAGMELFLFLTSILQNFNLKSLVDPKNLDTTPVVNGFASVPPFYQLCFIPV

Cytochrome P450 3A4 = Cytochrome P450 3A4 (Homo sapiens, UniProt P08684); conditions: Potency;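 also: confirmatory qHTS run detecting inhibitors and substrates of CYP3A4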
Chain of Cytochrome P450 3A4 (P08684 whole entry): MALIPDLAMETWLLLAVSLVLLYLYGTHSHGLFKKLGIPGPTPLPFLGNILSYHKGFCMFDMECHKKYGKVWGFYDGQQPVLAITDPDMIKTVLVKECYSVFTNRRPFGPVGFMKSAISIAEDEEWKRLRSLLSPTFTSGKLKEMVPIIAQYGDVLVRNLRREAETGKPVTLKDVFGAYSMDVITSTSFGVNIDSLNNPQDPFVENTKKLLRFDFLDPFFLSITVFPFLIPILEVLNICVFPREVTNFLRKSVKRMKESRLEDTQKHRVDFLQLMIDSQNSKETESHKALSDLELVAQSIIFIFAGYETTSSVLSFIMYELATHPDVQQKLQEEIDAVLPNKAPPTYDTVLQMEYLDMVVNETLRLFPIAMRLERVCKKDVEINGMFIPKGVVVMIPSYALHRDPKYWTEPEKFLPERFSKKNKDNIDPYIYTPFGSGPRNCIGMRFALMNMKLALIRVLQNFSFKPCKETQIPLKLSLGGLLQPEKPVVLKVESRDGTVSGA

[9] = molecular target: Melanin-concentrating hormone receptor 1 (Homo sapiens, UniProt Q99705); assay: Fluorescence-based counterscreen for antagonists of the G-protein coupled receptor 7 (GPR7): cell-based high throughput dose response assay to identify antagonists of the melanin-concentrating hormone receptor 1 (MCHR1).; assay type: functional
Chain of Melanin-concentrating hormone receptor 1 (Q99705 whole entry): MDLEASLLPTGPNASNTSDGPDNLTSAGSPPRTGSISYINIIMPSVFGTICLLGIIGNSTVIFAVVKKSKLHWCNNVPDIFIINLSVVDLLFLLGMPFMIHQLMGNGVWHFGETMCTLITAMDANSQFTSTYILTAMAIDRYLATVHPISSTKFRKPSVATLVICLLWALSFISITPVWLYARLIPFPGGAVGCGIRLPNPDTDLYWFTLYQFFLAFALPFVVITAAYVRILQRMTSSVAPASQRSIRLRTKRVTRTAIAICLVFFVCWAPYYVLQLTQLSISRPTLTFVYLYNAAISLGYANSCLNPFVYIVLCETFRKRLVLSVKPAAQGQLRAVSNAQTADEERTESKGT

[10] = molecular target: Neurotensin receptor type 1 (Homo sapiens, UniProt P30989); assay type: functional;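 also: Image-based confirmatory dose-response assay measuring agonist activity at NTR1; NTR1-expressing U2OS osteosarcoma cells imaged for beta-arrestin GFP spot formation; agonist potency where compounds increase beta-arrestin recruitment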
Chain of Neurotensin receptor type 1 (P30989 whole entry): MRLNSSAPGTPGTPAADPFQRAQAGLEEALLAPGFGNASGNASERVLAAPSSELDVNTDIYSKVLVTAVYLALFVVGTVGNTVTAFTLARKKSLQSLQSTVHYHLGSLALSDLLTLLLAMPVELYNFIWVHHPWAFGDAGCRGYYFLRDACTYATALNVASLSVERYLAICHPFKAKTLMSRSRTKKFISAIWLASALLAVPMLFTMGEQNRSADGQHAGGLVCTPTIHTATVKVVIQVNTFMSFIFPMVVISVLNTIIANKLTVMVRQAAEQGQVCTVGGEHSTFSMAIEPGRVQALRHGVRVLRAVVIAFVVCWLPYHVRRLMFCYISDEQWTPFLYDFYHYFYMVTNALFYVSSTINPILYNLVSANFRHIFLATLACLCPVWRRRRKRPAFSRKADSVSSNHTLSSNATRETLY

[11] = molecular target: T4, Zinc finger protein mex-5 (Caenorhabditis elegans, UniProt Q9XUB2); assay: potency of MEX-5 RNA-binding blockers – biochemical, C. elegans, fluorescence polarization, dose response (AID 1960)
T4 sequence (Q9XUB2 whole entry): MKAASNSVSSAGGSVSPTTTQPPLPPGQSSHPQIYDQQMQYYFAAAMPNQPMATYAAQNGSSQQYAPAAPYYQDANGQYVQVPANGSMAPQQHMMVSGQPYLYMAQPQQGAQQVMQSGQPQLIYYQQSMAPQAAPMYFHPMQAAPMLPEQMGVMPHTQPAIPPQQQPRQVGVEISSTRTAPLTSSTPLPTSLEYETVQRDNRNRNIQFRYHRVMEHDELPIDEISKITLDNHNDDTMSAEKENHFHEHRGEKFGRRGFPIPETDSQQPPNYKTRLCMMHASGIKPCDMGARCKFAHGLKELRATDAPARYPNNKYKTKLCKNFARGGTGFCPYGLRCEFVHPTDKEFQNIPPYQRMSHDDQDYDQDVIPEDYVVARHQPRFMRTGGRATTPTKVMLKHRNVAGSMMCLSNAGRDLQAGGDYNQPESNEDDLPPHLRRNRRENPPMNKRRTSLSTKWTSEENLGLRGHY

[12] = Trypanosoma cruzi growth suppression in host cells – NIH3T3 host cells, beta-gal luminescence, confirmation (AID 2044); assay type: functional, cell-based;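 also: intracellular parasites grown in NIH/3T3 mouse fibroblasts as host cells; luminescent beta-galactosidase reporter signal from transgenic T. cruzi replicating inside host cells; inhibitors lower the luminescence signal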
[13] = molecular target: T5, RNA-binding protein pos-1 (Caenorhabditis elegans, UniProt G5EF15); assay: disruptors of C. elegans POS-1 RNA interaction – biochemical, fluorescence polarization, dose response (AID 1964);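 also: purified POS-1 fused to maltose binding protein made in E. coli; potency of compounds blocking POS-1 binding to fluorescent RNA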
T5 sequence (G5EF15 whole entry): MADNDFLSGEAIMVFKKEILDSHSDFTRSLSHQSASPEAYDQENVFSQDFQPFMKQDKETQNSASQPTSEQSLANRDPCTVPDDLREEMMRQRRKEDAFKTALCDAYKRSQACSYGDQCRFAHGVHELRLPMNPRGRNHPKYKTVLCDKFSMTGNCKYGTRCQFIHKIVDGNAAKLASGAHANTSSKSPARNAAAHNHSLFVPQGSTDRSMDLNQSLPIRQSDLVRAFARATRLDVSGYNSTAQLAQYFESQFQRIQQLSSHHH

Salmon testes DNA = assay: acridine orange-DNA binding displacement – biochemical, fluorescence polarization, cherry-picked samples, set 2, artefact control for KSHV LANA DNA-binding inhibitor project, dose response (AID 504727); design: species or system Salmonidae
[14] = NIH3T3 cell viability loss – ATP luminescence, mouse fibroblasts, counter-screen, dose response (AID 2010); assay type: functional, cell-based;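 also: cells exposed to compound for about 90 hours before reading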
Streptococcus [15] = assay: Luminescence Microorganism-Based Dose Response Follow up to Identify Compounds Cytotoxic to Streptococcus. [Related pubchem assays: 1677 (Project Summary), 1915, 1914, 1902 (Retest at Dose), 1900 (Counter Screen), 1662 (Primary HTS)]; assay type: functional, organism-based
Streptokinase A = molecular target: T6, Streptokinase A (Streptococcus pyogenes serotype M1, UniProt P10520); assay: viability-normalized secreted streptokinase activity reduction – plasminogen activation absorbance, OD405, dose response (AID 1914); assay type: functional, Streptococcus pyogenes M1 GAS;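 also: secreted streptokinase activity via plasminogen activation per viability signal from cell pellet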
T6 sequence (P10520 whole entry): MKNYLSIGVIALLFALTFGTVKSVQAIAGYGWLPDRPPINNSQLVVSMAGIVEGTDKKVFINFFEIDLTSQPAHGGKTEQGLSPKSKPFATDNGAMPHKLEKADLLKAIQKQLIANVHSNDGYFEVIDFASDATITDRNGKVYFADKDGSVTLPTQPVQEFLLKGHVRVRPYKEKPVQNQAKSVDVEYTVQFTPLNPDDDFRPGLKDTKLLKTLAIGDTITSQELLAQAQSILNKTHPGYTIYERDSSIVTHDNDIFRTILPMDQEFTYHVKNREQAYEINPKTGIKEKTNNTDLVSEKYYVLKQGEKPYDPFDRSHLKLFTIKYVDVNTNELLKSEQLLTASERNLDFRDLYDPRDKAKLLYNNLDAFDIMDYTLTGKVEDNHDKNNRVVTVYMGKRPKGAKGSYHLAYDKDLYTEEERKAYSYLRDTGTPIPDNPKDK

[16] = test system: Streptococcus sp. 'group A'; assay: Streptococcus pyogenes SK(-)GAS viability under kanamycin – luminescence, BacTiterGlo, confirmation, counter-screen for streptokinase expression inhibitor project, dose response (AID 1900); assay type: functional, organism-based
Streptococcus [17] = assay: GAS UMAA2166 growth inhibition – luminescence, BacTiterGlo, counter-screen for streptokinase expression inhibitor project, dose response (AID 1915); assay type: functional, organism-based;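 also: potency for reduction of bacterial viability or growth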
Vero [18] = assay: host cell viability loss, Vero E6 – synthesized analogs, cytotoxicity control for West Nile virus antiviral project, SAR follow-up (AID 2244); assay type: functional; conditions: Chlorocebus sabaeus
Vero [19] = assay: Vero 76 cell viability after compound exposure – Vero 76 cells, synthesized analogs, cytotoxicity control for West Nile virus antiviral project, SAR follow-up (AID 2414); assay type: functional; conditions: Chlorocebus sabaeus
Vero [20] = assay: Vero cell viability after compound exposure – synthesized analogs, set II, cytotoxicity control for West Nile virus antiviral project, SAR follow-up (AID 2402); assay type: functional; conditions: Chlorocebus sabaeus
[21] = A Cell Based Assay for the Identification of Probe candidate Compounds with Anti- Venezuelan Equine Encephalitis virus. [Related pubchem assays: 2409, 2419, 1621, 2238, 2405, 2024, 2065, 2402, 2414, 1635, 1650, 2244 ]; assay type: functional
[22] = molecular target: Dual specificity protein phosphatase 3 (Homo sapiens, UniProt P51452); assay: inhibition constants for human DUSP3 – biochemical, colorimetric, SAR follow-up (AID 2004)
Chain of Dual specificity protein phosphatase 3 (P51452 whole entry): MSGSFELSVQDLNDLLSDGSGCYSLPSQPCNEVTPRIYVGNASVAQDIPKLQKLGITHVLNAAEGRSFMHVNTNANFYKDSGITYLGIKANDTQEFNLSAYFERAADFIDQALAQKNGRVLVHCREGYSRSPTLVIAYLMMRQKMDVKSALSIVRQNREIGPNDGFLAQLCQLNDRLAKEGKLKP

CCSc1ncc(Cl)c(C(=O)Nc2sc3c(c2C(=O)NCc2cccnc2)CCCC3)n1
IC50 [1]: > 80 µM (inactive) | IC50 [2]: 5.97 µM (active) | IC50 [3]: 19.1 µM (active)

O=C(CSCc1ccco1)N1CCc2ccccc21
AC50 [4]: 1.9 µM (active)

O=C1c2cccc(NCCNCCO)c2C(=O)c2cccc(NCCNCCO)c21
IC50 [5]: > 300 µM (active) | IC50 [6]: 41.3 µM (active) | AC50 [7]: < 0.15 µM (active) | CC50 [8]: 23.1 µM (active)

O=c1c(O)c(-c2ccc(O)cc2)oc2ccc(O)cc12
AC50 (Cytochrome P450 2C9): 10 µM (inconclusive) | AC50 (Cytochrome P450 3A4): 12.6 µM (inconclusive)

Cc1ccc(C2C3=C(NCCN=C3c3ccccc3)C(=O)N2c2ccccc2)cc1 (stereo unspecified)
IC50 [9]: > 14.6 µM (not active)

O=C(COC(=O)/C=C/C(=O)OCC(=O)NC12CC3CC(CC(C3)C1)C2)NC12CC3CC(CC(C3)C1)C2
EC50 [10]: > 40 µM (inactive)

COc1cccc(OCCCn2cc(/C=C3/C(=N)N4C=C(C)SC4=NC3=O)c3ccccc32)c1
EC50 [11]: 109 µM (active) | EC50 [12]: 1.34 µM (active) | EC50 [13]: 108 µM (active) | AC50 (Salmon testes DNA): 65.9 µM (active) | EC50 [14]: > 60 µM (not active)

COc1ccc(-c2csc3ncnc(N4CCN(c5ccccc5Cl)CC4)c23)cc1
EC50 (Streptococcus [15]): > 500 µM (not active) | EC50 (Streptokinase A): 3.7 µM (active) | EC50 [16]: 82.6 µM (active) | EC50 (Streptococcus [17]): > 150 µM (not active)

COc1cccc(NC(=O)CSc2nc3ccccc3c(=O)n2-c2ccc(F)cc2)c1
CC50 (Vero [18]): > 40 µM (active) | CC50 (Vero [19]): > 66.6 µM (active) | CC50 (Vero [20]): > 100 µM (active) | IC50 [21]: 64.2 µM (active)

CC(C)C1SC(N/N=C/c2ccc(O)cc2)=NC1=O (stereo unspecified)
Ki [22]: 36.1 µM (inactive)
